# Laboratory results from patent US7160888B2, “[1,8]naphthyridin-2-ones and related compounds for the treatment of schizophrenia” (Warner Lambert Company LLC, priority 2003, dated 2007).
# Target: D2 receptor (Homo sapiens, UniProt P14416)
# Experiment: [3H]Thymidine uptake assay for D2 intrinsic activity
# Format: cell-based
# Details: Table 1; test compound 1 μM; 1 μM Quinpirole = 100% intrinsic activity
# Experimental: D2 intrinsic activity of title compounds of the Examples, below, was determined using the [^3H]thymidine uptake assay described below.
# [^3H]Thymidine Uptake Assay for D2 Intrinsic Activity
# Cells are serum deprived by washing twice with 200 μl of serum-free media. 90 μl serum-free media was added to each well. The plates ware incubated for two to three hours. 10 μl of serum-containing media, as a positive control, vehicle (serum-free media), negative control (an antagonist) or test compounds and standards (10 μl of a 10 μM solution for a final concentration of 1 μM) in serum-free media were added to wells. The plates are returned to the incubator. Eighteen hours later [^3H]thymidine is added (0.5 μCi/well in 10 μl of serum-free media) and the plates are returned to the incubator. […] The plates are returned to the incubator, once again. One hour later the assay is terminated by rapid filtration through Whatman GF/C glass fiber filters. Filters are washed four times with 500 ml of 50 mM Tris-HCl pH 7.0 buffer, for example, using a Brandel MLR-96T cell harvester. […] Intrinsic activity is defined as total uptake (1 μM Quinpirole) minus serum-free media (no uptake). Test compounds are compared to 1 μM Quinpirole (full DA agonist), which was classified as 100% intrinsic activity.
# D2 receptor, sequence (P14416 whole entry): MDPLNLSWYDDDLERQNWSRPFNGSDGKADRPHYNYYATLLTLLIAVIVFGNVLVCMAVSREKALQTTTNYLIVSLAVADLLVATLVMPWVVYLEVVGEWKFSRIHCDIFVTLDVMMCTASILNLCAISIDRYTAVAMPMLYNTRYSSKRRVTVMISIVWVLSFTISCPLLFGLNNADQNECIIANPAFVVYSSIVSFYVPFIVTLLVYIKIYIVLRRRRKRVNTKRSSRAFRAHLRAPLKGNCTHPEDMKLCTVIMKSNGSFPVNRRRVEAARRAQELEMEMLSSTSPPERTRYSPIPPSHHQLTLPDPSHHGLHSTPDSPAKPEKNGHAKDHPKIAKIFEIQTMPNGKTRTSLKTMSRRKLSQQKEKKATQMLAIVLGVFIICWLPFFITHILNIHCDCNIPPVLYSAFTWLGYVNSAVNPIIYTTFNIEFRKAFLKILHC
row,Compound,Emax at 1 µM [%]
1,"O=c1ccc2ccc(OCCCCN3CCN(c4cccc5c4CCC5)CC3)nc2[nH]1 [Example B32, 7-[4-(4-Indan-4-yl-piperazin-1-yl)-butoxy]-1H-[1,8]naphthyridin-2-one]",19
2,"O=c1ccc2ccc(OCCCCN3CCN(c4cccc5c4CCCC5)CC3)nc2[nH]1 [Example B33, 7-{4-[4-(5,6,7,8-Tetrahydro-naphthalen-1-yl)-piperazin-1-yl]-butoxy}-1H-[1,8]naphthyridin-2-one]",26
3,"O=C1CCCc2cccc(N3CCN(CCCCOc4ccc5ccc(=O)[nH]c5n4)CC3)c21 [Example B35, 7-{4-[4-(8-Oxo-5,6,7,8-tetrahydro-naphthalen-1-yl)-piperazin-1-yl]-butoxy}-1H-[1,8]naphthyridin-2-one]",20
4,"CC1(C)CCc2cccc(N3CCN(CCCCOc4ccc5ccc(=O)[nH]c5n4)CC3)c2C1=O [Example B36, 7-{4-[4-(7,7-Dimethyl-8-oxo-5,6,7,8-tetrahydro-naphthalen-1-yl)-piperazin-1-yl]-butoxy}-1H-[1,8]naphthyridin-2-one]",39
5,"O=C1CCc2cccc(N3CCN(CCCCOc4ccc5ccc(=O)[nH]c5n4)CC3)c2C1 [Example B40, 7-{4-[4-(7-Oxo-5,6,7,8-tetrahydro-naphthalen-1-yl)-piperazin-1-yl]-butoxy}-1H-[1,8]naphthyridin-2-one]",36
6,"O=c1ccc2ccc(OCCCCN3CCN(c4cccc5c4CCCC5(F)F)CC3)nc2[nH]1 [Example B43, 7-{4-[4-(5,5-Difluoro-5 6,7,8-tetrahydro-naphthalen-1-yl)-piperazin-1-yl]-butoxy}-1H-[1,8]naphthyridin-2-one]",18
7,"O=C1CCc2cccc(N3CCN(CCCCOc4ccc5ccc(=O)[nH]c5n4)CC3)c21 [Example B44, 7-{4-[4-(3-Oxo-indan-4-yl)-piperazin-1-yl]-butoxy}-1H-[1,8]naphthyridin-2-one]",27
8,"O=c1ccc2ccc(OCCCCN3CCN(c4cccc5c4CC(F)(F)C5)CC3)nc2[nH]1 [Example B46, 7-{4-[4-(2,2-Difluoro-indan-4-yl)-piperazin-1-yl]-butoxy}-1H-[1,8]naphthyridin-2-one]",29
9,"O=c1ccc2ccc(OCCCCN3CCN(c4cccc5ccccc45)CC3)nc2[nH]1 [Example B47, 7-[4-(4-Naphthalen-1-yl-piperazin-1-yl)-butoxy]-1H-[1,8]naphthyridin-2-one]",44
10,"O=c1ccc2ccc(OCCCCN3CCN(c4cccc5cccc(F)c45)CC3)nc2[nH]1 [Example B50, 7-{4-[4-(8-Fluoro-naphthalen-1-yl)-piperazin-1-yl]-butoxy}-1H-[1,8]naphthyridin-2-one]",51
11,"O=c1ccc2ccc(OCCCCN3CCN(c4cccc5c(F)cccc45)CC3)nc2[nH]1 [Example B51, 7-{4-[4-(5-Fluoro-naphthalen-1-yl)-piperazin-1-yl]-butoxy}-1H-[1,8]naphthyridin-2-one]",36
12,"O=c1ccc2ccc(OCCCCN3CCN(c4ccc(F)c5ccccc45)CC3)nc2[nH]1 [Example B52, 7-{4-[4-(4-Fluoro-naphthalen-1-yl)-piperazin-1-yl]-butoxy}-1H-[1,8]naphthyridin-2-one]",17
13,"O=c1ccc2ccc(OCCCCN3CCN(c4c(F)ccc5ccccc45)CC3)nc2[nH]1 [Example B54, 7-{4-[4-(2-Fluoro-naphthalen-1-yl)-piperazin-1-yl]-butoxy}-1H-[1,8]naphthyridin-2-one]",15
14,"O=c1ccc2ccc(OCCCCN3CCN(c4cccc5ccc(Cl)cc45)CC3)nc2[nH]1 [Example B56, 7-{4-[4-(7-Chloro-naphthalen-1-yl)-piperazin-1-yl]-butoxy}-1H-[1,8]naphthyridin-2-one]",28
15,"O=c1ccc2ccc(OCCCCN3CCN(c4cccc5cc(Cl)ccc45)CC3)nc2[nH]1 [Example B57, 7-{4-[4-(6-Chloro-naphthalen-1-yl)-piperazin-1-yl]-butoxy}-1H-[1,8]naphthyridin-2-one]",21
16,"O=c1ccc2ccc(OCCCCN3CCN(c4cccc5c(Cl)cccc45)CC3)nc2[nH]1 [Example B58, 7-{4-[4-(5-Chloro-naphthalen-1-yl)-piperazin-1-yl]-butoxy}-1H-[1,8]naphthyridin-2-one]",42
17,"O=c1ccc2ccc(OCCCCN3CCN(c4cccc5cccc(Cl)c45)CC3)nc2[nH]1 [Example B59, 7-{4-[4-(8-Chloro-naphthalen-1-yl)-piperazin-1-yl]-butoxy}-1H-[1,8]naphthyridin-2-one]",37
18,"COc1ccc2cccc(N3CCN(CCCCOc4ccc5ccc(=O)[nH]c5n4)CC3)c2c1 [Example B60, 7-{4-[4-(7-Methoxy-naphthalen-1-yl)-piperazin-1-yl]-butoxy}-1H-[1,8]naphthyridin-2-one]",28
19,"COc1ccc2c(N3CCN(CCCCOc4ccc5ccc(=O)[nH]c5n4)CC3)cccc2c1 [Example B61, 7-{4-[4-(6-Methoxy-naphthalen-1-yl)-piperazin-1-yl]-butoxy}-1H-[1,8]naphthyridin-2-one]",18
20,"CC(=O)c1ccc2cccc(N3CCN(CCCCOc4ccc5ccc(=O)[nH]c5n4)CC3)c2c1 [Example B62, 7-{4-[4-(7-Acetyl-naphthalen-1-yl)-piperazin-1-yl]-butoxy}-1H-[1,8]naphthyridin-2-one]",21
21,"CC(=O)c1ccc2c(N3CCN(CCCCOc4ccc5ccc(=O)[nH]c5n4)CC3)cccc2c1 [Example B63, 7-{4-[4-(6-Acetyl-naphthalen-1-yl)-piperazin-1-yl]-butoxy}-1H-[1,8]naphthyridin-2-one]",18
22,"CC(=O)c1cccc2c(N3CCN(CCCCOc4ccc5ccc(=O)[nH]c5n4)CC3)cccc12 [Example B64, 7-{4-[4-(5-Acetyl-naphthalen-1-yl)-piperazin-1-yl]-butoxy}-1H-[1,8]naphthyridin-2-one]",27
23,"CC(=O)c1ccc(N2CCN(CCCCOc3ccc4ccc(=O)[nH]c4n3)CC2)c2ccccc12 [Example B65, 7-{4-[4-(4-Acetyl-naphthalen-1-yl)-piperazin-1-yl]-butoxy}-1H-[1,8]naphthyridin-2-one]",10
24,"CC(=O)c1ccc2ccccc2c1N1CCN(CCCCOc2ccc3ccc(=O)[nH]c3n2)CC1 [Example B66, 7-{4-[4-(2-Acetyl-naphthalen-1-yl)-piperazin-1-yl]-butoxy}-1H-[1,8]naphthyridin-2-one]",33
25,"N#Cc1ccc2cccc(N3CCN(CCCCOc4ccc5ccc(=O)[nH]c5n4)CC3)c2c1 [Example B67, 8-{4-[4-(7-Oxo-7,8-dihydro-[1,8]naphthyridin-2-yloxy)-butyl]-piperazin-1-yl}-naphthalene-2-carbonitrile]",39
26,"Cn1c(=O)ccc2ccc(OCCCCN3CCN(c4cccc5ccccc45)CC3)nc21 [Example B68, 1-Methyl-7-[4-(4-naphthalen-1-yl-piperazin-1-yl)-butoxy]-1H-[1,8]naphthyridin-2-one]",17
27,"O=c1ccc2ccc(OCCCN3CCN(c4cccc(Cl)c4Cl)CC3)nc2[nH]1 [Example C1, 7-{3-[4-(2,3-Dichloro-phenyl)-piperazin-1-yl]-propoxy}-1H-[1,8]naphthyridin-2-one]",43
28,"O=c1ccc2ccc(OCCCN3CCN(c4cccc5ccccc45)CC3)nc2[nH]1 [Example C2, 7-[3-(4-Naphthalen-1-yl-piperazin-1-yl)-propoxy]-1H-[1,8]naphthyridin-2-one]",24
29,"O=C1CCc2ccc(OCCCN3CCN(c4cccc5ccccc45)CC3)nc2N1 [Example C3, 7-[3-(4-Naphthalen-1-yl-piperazin-1-yl)-propoxy]-3,4-dihydro-1H-[1,8]naphthyridin-2-one]",22

# Same assay, conditions: Table 2; test compound 1 μM; 1 μM Quinpirole = 100% intrinsic activity
row,Compound,Emax at 1 µM [%]
1,"O=c1ccc2ccc(OCCCCN3CCN(c4cccc5ncc(F)cc45)CC3)nc2[nH]1 [Example B34′, 7-{4-[4-(3-Fluoro-quinolin-5-yl)-piperazin-1-yl]-butoxy}-1H-[1,8]naphthyridin-2-one]",35
2,"O=c1ccc2ccc(OCCCCN3CCN(c4cccc5ccc(=O)[nH]c45)CC3)nc2[nH]1 [Example B36′, 7-{4-[4-(2-Oxo-1,2-dihydro-quinolin-8-yl)-piperazin-1-yl]-butoxy}-1H-[1,8]naphthyridin-2-one]",36
3,"O=C1CCc2cccc(N3CCN(CCCCOc4ccc5ccc(=O)[nH]c5n4)CC3)c2N1 [Example B37′, 7-{4-[4-(2-Oxo-1,2,3,4-tetrahydro-quinolin-8-yl)-piperazin-1-yl]-butoxy}-1H-[1,8]naphthyridin-2-one]",39
4,"CN1C(=O)CCc2cccc(N3CCN(CCCCOc4ccc5ccc(=O)[nH]c5n4)CC3)c21 [Example B38′, 7-{4-[4-(1-Methyl-2-oxo-1,2,3,4-tetrahydro-quinolin-8-yl)-piperazin-1-yl]-butoxy}-1H-[1,8]naphthyridin-2-one]",46
5,"O=c1ccc2ccc(OCCCCN3CCN(c4cccc5nonc45)CC3)nc2[nH]1 [Example B39′, 7-[4-(4-Benzo[1,2,5]oxadiazol-4-yl-piperazin-1-yl)-butoxy]-1H-[1,8]naphthyridin-2-one]",29
6,"O=c1ccc2ccc(OCCCCN3CCN(c4cccc5nsnc45)CC3)nc2[nH]1 [Example B40′, 7-[4-(4-Benzo[1,2,5]thiadiazol-4-yl-piperazin-1-yl)-butoxy]-1H-[1,8]naphthyridin-2-one]",49
7,"CC1(C)CC(=O)Nc2nc(OCCCCN3CCN(c4cccc5cccnc45)CC3)ccc21 [Example C1′, 4,4-Dimethyl-7-[4-(4-quinolin-8-yl-piperazin-1-yl)-butoxy]-3,4-dihydro-1H-[1,8]naphthyridin-2-one]",38
8,"CC1(C)CC(=O)Nc2nc(OCCCCN3CCN(c4cccc5c4OCCO5)CC3)ccc21 [Example C2′, 7-{4-[4-(2,3-Dihydro-benzo[1,4]dioxin-5-yl)-piperazin-1-yl]-butoxy}-4,4-dimethyl-3,4-dihydro-1H-[1,8]naphthyridin-2-one]",22
9,"CC1(C)CC(=O)Nc2nc(OCCCCN3CCN(c4cccc5c4NC(=O)CC5)CC3)ccc21 [Example C3′, 4,4-Dimethyl-7-{4-[4-(2-oxo-1,2,3,4-tetrahydro-quinolin-8-yl)-piperazin-1-yl]-butoxy}-3,4-dihydro-1H-[1,8]naphthyridin-2-one]",19
